Key:
[1] = limiting area and limiting radius of fatty acids; assay type: physicochemical
Description: Fatty acids with one or two cis double bonds have this limiting area; while those with three or more cis double bonds have larger limiting areas. The saturated and trans fatty acids have limiting areas much smaller than this.

[2] = cited from earlier work
[3] = solubility of lithium fatty acid salts; assay type: physicochemical

| SMILES | Limiting radius [1] | pKa [2] | solubility [3] |
| --- | --- | --- | --- |
| CCCCCCCC/C=C/CCCCCCCC(=O)O [Elaidic, elaidic acid] | 3.24 Å | 9.95 | – |
| CCCCC/C=C\C/C=C\CCCCCCCC(=O)O [Linoleic, linoleic acid] | 3.91 Å | – | – |
| CCCCCCCC/C=C\CCCCCCCC(=O)O [Oleic, oleic acid] | 3.61 Å | 9.85 | – |
| CCCCCCCCCCCCCCCCCC(=O)O [Stearic, stearic acid] | 2.52 Å | – | – |
| CCCCCCCCCCCC(=O)[O-].[Li+] [dodecanoate, lithium dodecanoate] | – | – | higher solubility than that of oleic acid |
